Key:
Format in all cases: physicochemical
[1] = Forced degradation: solid state with thermal stress
Description: (§1) Instrumentation: • Light stability chamber: Solarbox 1500e • Oven: Salvis Vacuum drying oven VC-20 • Heating unit: Ikamag RET-GS with IKA ETS SD and stainless steel heating block • Vials: Supelco V-Vials and screw caps with PTFE septa • Gas tight vials: Agilent 10 mL HS-GC clear glass vials and crimp caps with Not applicable PTFE septa • Quartz glass cuvette: Hellma precision cuvette Suprasil, Type 117.100-QS, 10 mm path length, screw capped with silicone septa • HPLC: As described above
(§2) The HPLC test method described above was used to determine the assay and purity of 6-(4-(tert-butyl)phenoxy)pyridin-3-amine monohydrochloride before the forced degradation experiments and the area % content of individual impurities and degradation products in the 6-(4-(tert-butyl)phenoxy)pyridin-3-amine monohydrochloride samples obtained from the degradation experiments.
(§3) The assay and the purity of 6-(4-(tert-butyl)phenoxy)pyridin-3-amine monohydrochloride were determined using HPLC with UV detection at 220 nm utilizing the area normalization methodology for purity determination and external standard calibration for assay determination. During all experiments the UV spectra from 200 nm to 950 nm have been recorded and also the peak purity of 6-(4-(tert-butyl)phenoxy)pyridin-3-amine monohydrochloride was assessed.
Approximately 20.4 mg and 50.1 mg of 6-(4-(tert-butyl)phenoxy)pyridin-3-amine monohydrochloride were weighed into a Supelco V-Vial. The vial was closed with the screw cap and stored in the heating block of the heating unit operated at 100° C.±5° C. for 20 h (20 mg sample) and 68 h (50 mg sample), respectively.
After storage at 100° C. for the intended time each sample was cooled down to room temperature and the content of the vial was dissolved in about 4 mL of the sample solvent (acetonitrile/water 3:1 v/v). The obtained solution was quantitatively transferred into a 25 mL volumetric flask (20 mg sample), or to a 50 mL volumetric flask (50 mg sample), respectively. […]

[2] = Solubility in water at various pH-values; conditions: for calculated concentration charged: soluble
Description: The solubilities in water of 6-(4-(tert-butyl)phenoxy)pyridin-3-amine (formula (Ia)) and the monohydrochloride salt thereof, i.e. 6-(4-(tert-butyl)phenoxy)pyridin-3-amine monohydrochloride, were assessed at various pH-values according to Tables 3 and 4. The solubility in water of 6-(4-(tert-butyl)phenoxy)pyridin-3-amine (formula (Ia)) according to Table 3 was assayed as follows: Free base 500 mg were charged into 14 mL of acidic media at pH=2, 4, at neutral pH=7 and basic pH=10 to afford suspensions within calculated concentration of appr. 35 mg/mL. The solubility in water of 6-(4-(tert-butyl)phenoxy)pyridin-3-amine monohydrochloride according to Table 4 was assayed as follows: HCl salt 100 mg each were charged into acidic media at pH=2 and 4 and neutral media pH=7 to furnish solutions. Most important observation was to that at a neutral solution at pH=7 drops down to pH=1 by charging HCl salt 100 mg.

[3] = Forced degradation: solid state stressed by UV/VIS radiation
Description: as §1, §2, §3
Two samples of 20.23 mg and 20.17 mg of 6-(4-(tert-butyl)phenoxy)pyridin-3-amine monohydrochloride were weighed each into a quartz glass cuvette. Both cuvettes were closed with the screw cap. One of the cuvettes was protected by wrapping it in aluminium foil. This sample served as dark control. Both cuvettes were placed alongside each other in the light stability chamber and were then exposed in accordance to guideline to UV/VIS radiation applying energy of 500 W/m^2 until a total illumination of 1200 kLux·h was reached. After exposure to the UV/VIS radiation for an illumination of 1200 kLux·h the sample was brought to room temperature and the content of the cuvette was dissolved in about 2 mL of the sample solvent (acetonitrile/water 3:1 v/v). The obtained solution was quantitatively transferred into a 25 mL volumetric flask. Then the cuvette was rinsed five times with about 2 mL sample solvent, whereupon each time the content of the cuvette was also transferred into the 25 mL volumetric flask. After the flask was filled up to volume with the sample solvent and was shaken well, an aliquot of this solution was transferred into a HPLC vial for analysis. Result: In solid state 6-(4-(tert-butyl)phenoxy)pyridin-3-amine monohydrochloride is stable against UV/VIS radiation. After an illumination of 1200 kLux·h, applying an energy of 500 W/m^2, the purity decreased by 0.6 area % which was mainly related to the occurrence of two unknown impurities.

[4] = 15% acetic acid soln., pH solvent 2, 100 mg in 0.6 ml
[5] = Fluka 33643 (pH = 4), 100 mg in 1.4 ml
[6] = Fluka 33646 (pH = 7), 100 mg in 1.0 ml
[7] = solid state, illumination of 1200 kLux·h, 500 W/m^2

stability in solid state ([1]; 100° C.): stable | changes in the purity and the purity profile ([1]; solid state, after 68 h storage at 100° C.): No significant changes | decrease in the assay ([1]; solid state, storage at 100° C., accepted variability of the method ±2%): ≤ 2% | pH solution [2, 4]: 0 | soluble ([2]; 15% acetic acid soln., pH solvent 2, 100 mg in 0.6 ml, conc. 166.66 mg/mL): yes | calculated concentration charged [2, 4]: 166.66 mg/mL | pH solution [2, 5]: 1 | soluble ([2]; Fluka 33643 (pH = 4), 100 mg in 1.4 ml, conc. 71.43 mg/mL): yes | calculated concentration charged [2, 5]: 71.43 mg/mL | pH solution [2, 6]: 1 | soluble ([2]; Fluka 33646 (pH = 7), 100 mg in 1.0 ml, conc. 100.00 mg/mL): yes | calculated concentration charged [2, 6]: 100.00 mg/mL | solubility in water ([2]; water, in words): well-soluble | decrease in the assay ([3]; dark control (cuvette wrapped in aluminium foil) in the light stability chamber): 2.4 % w/w | stability against UV/VIS radiation ([3]; solid state): stable | decrease in the assay [3, 7]: 2.1 % w/w | purity decrease [3, 7]: 0.6 area %
SMILES: CC(C)(C)c1ccc(Oc2ccc(N)cn2)cc1.Cl [6-(4-(tert-butyl)phenoxy)pyridin-3-amine monohydrochloride]
